Peptide text beside a SMILES is read from it.
How the values were obtained:
E. coli(25922) = assay: Minimum inhibitory concentration, broth microdilution in Mueller-Hinton media; assay type: cell-based, Escherichia coli; conditions: E. coli (ATCC 25922), Gram negative
Source text: (§1) Table III lists the minimum inhibitory concentration (ug/mL) for the various organisms assayed in Mueller-Hinton growth media. Details of the microbiological techniques employed are available to those skilled in the art, for instance from the American Type Tissue Culture Catalog (ATCC, Maryland) or DIFCO Manual, 10th Edition, 1984, pp. 78-80. For instance, a cultured solution of the bacterial strains Escherichia coli (American Tissue Culture Collection, Maryland) ATCC […] and Pseudomonas aeruginosa ATCC 27853 can be tested to model Gram-negative bacteria. Bacteria were grown overnight at 37 C. in Mueller-Hinton broth, reinoculated and incubated at 37 C. to reach the exponential phase of bacterial growth [i.e. a final bacterial suspension cantaining from 100,000 to 500,000 colony-forming units [(CFU)/ml]. In 96 well tissue culture plates, peptides dissolved in distilled water were added to the bacterial suspension at concentrations varying between 1000 to 2 ug/mL derived from serial dilutions, and then incubated overnight at 37 C.

Ps. Aruginosa(13883) = assay: as above; assay type: cell-based, Pseudomonas aeruginosa; conditions: Ps. Aruginosa (ATCC 13883), Gram negative
Source text: as §1

Staph aureus(25923) = assay: as above; assay type: cell-based; conditions: Staph aureus (ATCC 25923), Gram positive
Source text: as §1

Pichia = assay: Minimum inhibitory concentration, broth microdilution; assay type: cell-based; conditions: Yeast Pichia
Source text: as §1

Sac.cerv. = assay: as above; assay type: cell-based; conditions: Yeast Sac.cerv.
Source text: as §1

[1] = Solubility (optical density readings); assay type: physicochemical
Source text: (§2) Table III lists the approximate pharmacokinetics of synthetic peptides described in the present invention which solubilize readily, persist in conformationally active secondary structures in vivo, and induce lysis of representative bacteria, yeast and fungi. These determinations derive from optical density readings (O.D.) and rely on spectrophotometric absorbance from known initial concentrations as reference standards. The optimal therapeutic index for dosage and effective antimicrobial inhibition of a particular polypeptide or salt thereof range between 10-100 and follow routinely without elaborate laboratory determinations by those skilled in the art of pharmacokinetics and metabolic pathways using, for instance, various cytochrome and liver enzymes in vivo.

[2] = Biostability half-life, mammalian; assay type: in vitro ADME
Source text: as §2

[3] = Biostability half-life, yeast; assay type: in vitro ADME
Source text: as §2

[4] = Biostability half-life, E. coli; assay type: in vitro ADME
Source text: as §2

[5] = system: representative bacteria, yeast and fungi; assay: Antimicrobial action (general statement); assay type: cell-based
Source text: as §1, with “In 96 well tissue culture plates, peptides dissolved in distilled water were added to the bacterial suspension at concentrations varying between 1000 to 2 ug/mL derived from serial dilutions, and then incubated overnight at 37 C.” left out
Table III lists the approximate pharmacokinetics of synthetic peptides described in the present invention which solubilize readily, persist in conformationally active secondary structures in vivo, and induce lysis of representative bacteria, yeast and fungi. These determinations derive from optical density readings (O.D.) and rely on spectrophotometric absorbance from known initial concentrations as reference standards. […]

Molecule | Minimum Inhibitory Concentration (MIC) (E. coli(25922)) [µg/mL] | Minimum Inhibitory Concentration (MIC) (Ps. Aruginosa(13883)) [µg/mL] | Minimum Inhibitory Concentration (MIC) (Staph aureus(25923)) [µg/mL] | Minimum Inhibitory Concentration (MIC) (Pichia) [µg/mL] | Minimum Inhibitory Concentration (MIC) (Sac.cerv.) [µg/mL] | Solubility [1] [ug/100 g] | solubility relative to B.t. fragment SEQ. 2 ([1]; ratio SEQ. 1 / SEQ. 2) [times] | Biostability Half-life Mammalian [2] [h] | Biostability Half-life Yeast [3] [h] | Biostability Half-life E. coli [4] [h] | antimicrobial potency [5]
GIGTLLGKKKTKFLKNILKL [SEQ. ID 1, 20-residue antimicrobial peptide, modified from a Bacillus thuringiensis delta-endotoxin fragment] | 16.00 | 32.00 | 63.00 | 8.00 | 16.00 | 85.09 | 5 | 30.00 | 20.00 | 10.00 | sub-micromolar
CC[C@H](C)[C@H](NC(=O)[C@H](CC(C)C)NC(=O)[C@H](CC(N)=O)NC(=O)[C@H](CCCNC(=N)N)NC(=O)[C@H](CC(C)C)NC(=O)[C@H](CCC(=O)O)NC(=O)[C@H](CO)NC(=O)[C@H](CC(C)C)NC(=O)[C@@H](NC(=O)[C@H](CCCNC(=N)N)NC(=O)[C@H](CCCCN)NC(=O)CNC(=O)[C@@H](NC(=O)[C@H](CC(C)C)NC(=O)[C@H](CO)NC(=O)CNC(=O)[C@@H](N)C(C)C)C(C)C)[C@@H](C)CC)C(N)=O [SEQ. ID 2, VGSLVGKRILSELRNLI] (H-VGSLVGKRILSELRNLI-NH2) |  |  |  |  |  | 16.50 |  | 100.00 | 20.00 | 10.00 | 
